Legend:
Assay in all cases: Cell survival / percentage killing of a culture exposed to an agent (viable counts)
[1] = system: MRSA strain S13; format: cell-based, Methicillin Resistant Staphylococcus aureus; settings: for Percentage of cells killed after 5 minutes exposure, MRSA (S13): 0.5% lauric acid Na salt and/or 0.25% Parabens Na salt, sodium salt
Description: (§1) Determination of the Cell Counts
(§2) This was achieved by a number of different techniques depending on the circumstances involved. The techniques used were:
(§3) 1. Standard spread plate technique
(§4) This involves spreading a 100 μl aliquot of the desired dilution onto well dried agar plates using an alcohol flamed hockey stick.
(§5) In this method 1 ml samples of the diluted culture are placed into a sterile petri dish and then sterile cooled agar is added. The plate is then gently swirled to facilitate a […] mixing of the sample and the agar and allowed to solidify before being incubated at the temperature of choice in an inverted manner.
(§6) 3. Spot/drop plating method
(§7) This method involves the placing of a sample or the diluted sample onto a pre-dried agar plate but the sample is allowed to dry into the plate. Usually an aliquot of 5-20 μl is chosen to be thus plated. This method offers the advantages of being both economical in terms of agar plates (several drops can be readily accommodated on one agar plate) and also accurate.
(§8) All plates were incubated for 16 hours before being counted.
(§9) All dilutions were carried out in ¼×Ringers solution and all bacteria were grown up in Tryptic Soy Broth (TSB)
(§10) Determination of the cell survival/percentage killing of a culture with respect to exposure to a given agent.
(§11) In this method a sample of a fresh overnight culture was titred and a sample (usually 5 mls) was added to either broth (100mls) containing the test reagents or sterile water (100 mls) and test agents.
(§12) Immediately a sample (T0) was taken and plated using one of the techniques listed above. At regular intervals thereafter other samples were also removed, diluted and plated.
(§13) Error is 1 standard deviation of the mean.

[2] = system: E. coli (lab isolate); format: cell-based, Escherichia coli; settings: 0.5% lauric acid Na salt and/or 0.25% Parabens Na salt
Description: as §1, §2, §3, §4, §5, §6, §7, §8, §9
Determination of the cell survival/percentage killing of a culture with respect to exposure to a given agent. […]

[3] = system: Ps. aeruginosa (lab isolate); format: cell-based, Pseudomonas aeruginosa; settings: for Percentage of cells killed after 5 minutes exposure, Ps. aeruginosa: 0.5% lauric acid Na salt and/or 0.25% Parabens Na salt, sodium salt
Description: as §1, §2, §3, §4, §5, §6, §7, §8, §9, §10, §11, §12, §13

[4] = system: Vancomycin-resistant Enterococci; format: cell-based, Enterococcus; settings: for killing effect / mode of action on Vancomycin-resistant Enterococci (in words): methyl/propyl paraben Na salt 0.25% (w/v) (1:1) and/or lauric acid Na salt 0.50% (w/v), sodium salt
Description: as §1, §2, §3, §4, §5, §6, §7, §8, §9, §10, §11, §12, §13

[5] = methyl/propyl paraben Na salt 0.25% (w/v) (1:1) and/or lauric acid Na salt 0.50% (w/v)

## CCCCCCCCCCCC(=O)[O-].[Na+] [lauric acid Na salt, lauric acid sodium salt]
[1]; 0.50% lauric acid Na salt, isolate S13 in water held at 37° C., over 2 hrs
  reduction of a population of MRSA: 99.8%
[1]; 0.50% lauric acid Na salt, repeated experiment, after 30 mins
  killing of MRSA: 99.6%
[1]; 1.75% lauric acid Na salt, isolate S13, over 2 hrs
  killing of MRSA: < 99.0%
[1]; listed as lauric acid
  Percentage of cells killed after 5 minutes exposure, MRSA (S13): more than 97
[1]
  Percentage of cells killed after 5 minutes exposure, MRSA (S13): >97
[1]; [5]
  killing effect / mode of action on MRSA isolate S13 (in words): does elicit killing effect
[2]
  Percentage of cells killed after 5 minutes exposure, E. coli: >90
[3]; listed as lauric acid
  Percentage of cells killed after 5 minutes exposure, Ps. aeruginosa: 13
[3]
  Percentage of cells killed after 5 minutes exposure, Ps. aeruginosa: >13
[3]; [5]
  killing effect / mode of action on Ps. aeruginosa (in words): not effective
[4]; 5 minutes, 0.5% lauric acid Na salt and/or 0.25% Parabens Na salt
  Percentage of cells killed after 5 minutes exposure, Vancomycin Resistant Enterococcus: 100
[4]; after 5 mins
  kill rate: 100%
[4]; after 5 mins, T0 count 4.63×10^7 cfu/ml
  survivors present when samples were plated: no survivors
[4]; listed as Lauric acid Na salt
  killing effect / mode of action on Vancomycin-resistant Enterococci (in words): bactericidal
[4]; listed as lauric acid
  killing effect / mode of action on Vancomycin-resistant Enterococci (in words): totally destroyed
[4]; strain FPL050, after 5 mins
  survivors present when samples were plated: no survivors

Source: patent US6461624B2, “Skin-protective composition” (priority 1997, dated 2002)
